# Test: Sensory comparison of flavored formulation examples with the flavor not according to the invention
# Format: in vivo
smiles,measurement,setting,value
"C/C=C(/C=O)c1ccccc1 [2-phenyl-but-2-enal, 2-Phenyl-but-2-enal]",Sensory effect compared to the flavor not according to the invention,"standard chewing gum, 2% peppermint type flavor (Example 2.11)",intensified feeling of freshness together with an increased menthol taste and perception of coolness
same,Sensory effect compared to the flavor not according to the invention,"sugar-free chewing gum, 1% Cinnamon type flavor Cool (Example 2.10), especially in the initial phase of consumption",intensified feeling of freshness together with an increased menthol taste and perception of coolness
same,Sensory effect compared to the flavor not according to the invention,"toothpaste (Silica opaque), 1% peppermint type flavor Cool (Example 2.14)",fresher mouthfeel together with an increased menthol taste and perception of coolness
same,Sensory effect compared to the flavor not according to the invention,"toothpaste (phosphate base), 1% spearmint type flavor (Example 2.12), especially at the start of brushing",definite feeling of freshness together with an increased menthol taste and perception of coolness
same,Sensory effect compared to the flavor not according to the invention,"toothpaste (transparent gel), 1% cinnamon type flavor (Example 2.13)",clearer freshness profile together with an increased menthol taste and perception of coolness

# — patent publication US9743685B2, “Mixtures having improved cooling effect” (SYMRISE AG, priority 2012, dated 2017)
